Patent US20070197470A1, “Use of n-acetyl-d-aminogylcosamine in preparation of drugs for modulating microorganisms on mucous membrane” (priority 2003, published 2007)
Entries after “also recorded” stand apart in the source; their conditions may differ.

Tests used:
[1] = test system: Proteus Mirabilis; assay: Promoting wave test (bio-wave model); format: cell-based
Description: 1.1 Samples: Pure Compound of Formula (I)
• Strain: Proteus Mirabilis (which should comply with the following biological reaction characteristics: dynamics (+), urease (+), lactose (−), glucose (+), H2S (−), phenylalanine deaminase (+). • Culture medium: modified LB culture medium (the component of the composition are: 1% trytones, 0.5% yeast extract, 1% sodium chloride, 0.1% glucose, 0.002% TTC, and pH=7.2˜7.4). 1.3 Experimental Method:
The experiment adopted a bio-wave model for studying the promoting wave function of the compound of formula (I).

[2] = in vivo
Description: • 1. Acute toxicity test: including tests of administrating medicine orally, intravenous injection and maximum limit amount for administration; • 2. Ames test; • 3. Micronucleus test of bone marrow cell of small mouse; • 4. Abnormal sexual test for the sperm of mouse; • 5. Abnormal aberrance test for the chromosin of mouse's testis; • 6. Chronic lethal test; • 7. Subchronic toxicity (feed for 90 days) test; • 8. Traditional deformity-inducing test;

[3] = test system: Pseudomonas aeruginosa; assay: Tests of bacterial colonization resistance; format: in vivo; conditions: intestinal mucosa of test animals, different concentrations
Method: Pseudomonas aeruginosa is used in the tests of bacterial colonization resistance of the compound of formula (I). The intestinal mucosa of test animals that were pre-administrated with Pseudomonas aeruginosus and were treated by the compound of formula (I) with different concentrations was detected by in situ colonization, qualitative and quantitative methods.

[4] = test system: patients with symptoms of microecological imbalance; assay: Clinical trial, effects for regulating mucocutaneous microecology; format: in vivo, human
Description: (§1) 56 patients with symptoms of microecological imbalance, including 20 patients with oral complaints, such as halitosis, oral infections caused by clinically unknown pathogenic bacteria, 20 patients with subaxilary complaints, such as slimy sensation or bromidrosis, and 16 patients with low […] of gynecological genitourinary tract caused by unknown source of infectious pathogen, were separately treated by mouthwash or topical sprinkle of 1% N-acetyl-D-glucosamine aqueous solution twice daily for 7 days. […] Observation of effects of N-acetyl-D-glucosamine for regulating mucocutaneous microecology

[5] = test system: flora of mucocutaneous microecology; assay: Clinical trial, detection of flora of mucocutaneous microecology (detection rates of various bacteria); format: in vivo, human
Description: as §1, with “Detection results” for “Observation”, “flora” for “effects”, “of” for “of N-acetyl-D-glucosamine for regulating”, “microecology regulated by N-acetyl-D-glucosamine (detection rates of various bacteria)” for “microecology”

[6] = Microecological imbalance of gynecological genitourinary tract, 16 cases
[7] = Subaxillary slimy sensation, 10 cases

Which promoting wave function [1] does the source give for `CC(=O)N[C@@H]1[C@@H](O)[C@H](O)[C@@H](CO)O[C@H]1O` [N-acetyl-D-glucosamine] here?
Its promoting wave function is “many fine waves on each ring emerged; also recorded: has promoting function to bio-waves”.

And the “acute test dosage relative to the injection dosage for human being” value [2]?
Its value is 300 times.

What about the “dosage at which the acute toxicosis reaction had not appeared” value [2] of the same compound?
Its value is “more than 2 g/kg”.

What about the “maximum dosage with no intoxication reaction” value ([2]; 4 weeks) of the same compound?
Its value is 1 g/kg.

And the “colonization resistance against Pseudomonas aeruginosa” value [3]?
The value was “increased with the increase of its concentration”.

What about the total effective rate ([4]; 56 patients, 1% aqueous solution mouthwash or topical sprinkle twice daily for 7 days) of the same compound?
The total effective rate was 87.8%.

And the Cured ([4]; Bromidrosis, 10 cases)?
The Cured was 5.

What about the Effective ([4]; Bromidrosis, 10 cases) of the same compound?
The Effective was 3.

What about the “Effective rate (%)” value ([4]; Bromidrosis, 10 cases) of the same compound?
Its value is 80%.

And the Ineffective ([4]; Bromidrosis, 10 cases)?
Its Ineffective is 2.

What about the Cured [4, 6] of the same compound?
Its Cured is 7.

And the Effective [4, 6]?
The Effective was 6.

And the “Effective rate (%)” value [4, 6]?
Its value is 81.3%.

And the Ineffective [4, 6]?
The Ineffective was 3.

And the Cured ([4]; Oral compliant, 20 cases)?
Its Cured is 8.

And the Effective ([4]; Oral compliant, 20 cases)?
Its Effective is 10.

What about the “Effective rate (%)” value ([4]; Oral compliant, 20 cases) of the same compound?
Its value is 90%.

What about the Ineffective ([4]; Oral compliant, 20 cases) of the same compound?
The Ineffective was 2.

What about the Cured [4, 7] of the same compound?
The Cured was 7.

And the Effective [4, 7]?
The Effective was 3.

And the “Effective rate (%)” value [4, 7]?
Its value is 100%.

And the Ineffective [4, 7]?
Its Ineffective is 0.

What about the “detection rate of helicoids” value ([5]; Buccal cavity (salivary bacteria), after regulation, before regulation 12) of the same compound?
Its value is “helicoids (0)”.

And the “detection rate of corynebacterium diphtheroides” value ([5]; Buccal cavity (salivary bacteria), after regulation, before regulation 18)?
Its value is “diphtheroides (8),”.

What about the “detection rate of Streptococcus mutans” value ([5]; Buccal cavity (salivary bacteria), after regulation, before regulation 23) of the same compound?
Its value is “(7), streptococcus”.

And the “detection rate of streptococcus salivarius” value ([5]; Buccal cavity (salivary bacteria), after regulation, before regulation 40)?
Its value is “salivarius (90),”.

What about the “detection rate of Neisser's coccus” value ([5]; Buccal cavity (salivary bacteria), after regulation, before regulation 50) of the same compound?
Its value is “(95), corynebacterium”.

And the “detection rate of bacteroides” value ([5]; Buccal cavity (salivary bacteria), after regulation, before regulation 60)?
The value was “bacteroides (30),”.

What about the “detection rate of aerobic coryneform bacteria” value ([5]; Skin of axillary fossa, after regulation, before regulation 18) of the same compound?
The value was “bacteria (12), pityro-”.

And the “detection rate of Staphylococci” value ([5]; Skin of axillary fossa, after regulation, before regulation 20)?
The value was “Staphylococci (36),”.

What about the “detection rate of pityrosporum furfur” value ([5]; Skin of axillary fossa, after regulation, before regulation 24) of the same compound?
The value was “sporum furfur (15),”.

What about the “detection rate of bacillus polymyxa odour” value ([5]; Skin of axillary fossa, after regulation, before regulation 40) of the same compound?
The value was “odour (9)”.

What about the “detection rate of bacillus acidi lactici” value ([5]; Woman's genitourinary tract, after regulation, before regulation 18) of the same compound?
The value was “acidi lactici (60),”.

And the “detection rate of bacillus coli” value ([5]; Woman's genitourinary tract, after regulation, before regulation 29)?
Its value is “bacillus coli (10)”.

And the “detection rate of Staphylococcus epidermidis” value ([5]; Woman's genitourinary tract, after regulation, before regulation 38)?
Its value is “midis (35), bacillus”.

And the “change of flora after use” value ([5]; buccal cavity, skin of axillary fossa and woman's genitourinary tract)?
The value was “autochthonous flora increased and allochthonous flora decreased”.
